Patent US11293870B2, “Vital stain” (Mie University, priority 2013, dated 2022)
“Also recorded” adds a separate entry of the source. Read-outs that look alike come from different tables or passages of the source.

Columns and labels:
Large intestine = assay: Evaluation of dye compound stainability under multiphoton laser microscope, large intestine mucosal surface; type: in vivo; details: mucosal surface of mouse large intestine; 5 mg/ml for curcumin, 1 mg/ml for other dyes
Protocol: Drinking water containing 2% (w/v) dextran sodium sulfate (DSS) was given to 8-week-old C57B6 mice (male, approximately 20 g) for 7 days. After intraperitoneal injection of 0.2 ml of 5% chloral hydrate for anesthesia, the mouse abdominal wall was incised vertically to about 1 cm, and the gastrointestinal tract was raised over the abdominal wall to about 1 cm. Blood flow to the gastrointestinal tract was maintained during this time by the blood vessel flowing into the mesenteric attachment site. The gastrointestinal tract was incised vertically to about 1 cm on opposite side of the mesenteric attachment site, including the tunica muscularis and mucosa. The opposite side of the mesenteric attachment site was incised in order to prevent severance and damage of the blood vessel and minimize bleeding. When the incision site of the gastrointestinal tract was opened vertically, the mucosal surface of the gastrointestinal tract, as the food channel, became visible. When food digestion products were present they were wiped off with tissue paper.
In order to more clearly observe the gastrointestinal tract mucosal surface, a 1% pronase solution was dropped onto the mucosal surface and was allowed to stand still for 15 minutes. This pronase treatment removed the mucus from the mucosal surface, rendering the cell structure more easily visible. […]

[1] = cited from earlier work
mucosal surfaces = assay: Photon dose necessary to obtain fluorescent images of dye-coated mucosal surfaces; type: in vivo, mouse; details: mucosal surfaces coated with dye
[2] = tested on: cancer lesion site versus normal mucosa of large intestine; assay: Comparison of staining patterns in normal site and cancer tumor site of large intestine; type: in vivo, mouse; details: for Staining of cancer lesion sites compared with normal mucosa: Example 1, regardless of pronase treatment of the mucosal surface; for Staining of cancer lesion site compared with normal mucosa: Example 3
Protocol: Drinking water containing 2% (w/v) dextran sodium sulfate (DSS) was given to 8-week-old C57B6 mice (male, approximately 20 g) for 7 days. After intraperitoneal injection of 0.2 ml of 5% chloral hydrate for anesthesia, the mouse abdominal wall was incised vertically to about 1 cm, and the gastrointestinal tract was raised over the abdominal wall to about 1 cm. Blood flow to the gastrointestinal tract was maintained during this time by the blood vessel flowing into the mesenteric attachment site. The gastrointestinal tract was incised vertically to about 1 cm on the opposite side of the mesenteric attachment site, including the tunica muscularis and mucosa. The opposite side of the mesenteric attachment site was incised in order to prevent severance and damage of the blood vessel and minimize bleeding. When the incision site of the gastrointestinal tract was opened vertically, the mucosal surface of the gastrointestinal tract, as the food channel, became visible. When food digestion products were present they were wiped off with tissue paper. In order to more clearly observe the gastrointestinal tract mucosal surface, a 1% pronase solution was dropped onto the mucosal surface and was allowed to stand still for 15 minutes. This pronase treatment removed the mucus from the mucosal surface, rendering the cell structure more easily visible. Next, the pronase was removed from the mucosal surface and rinsed with physiological saline (PBS). A metal ring (outer diameter: 16 millimeters, inner diameter, 6 millimeters) was placed on a laboratory stage, and a rapid bonding adhesive (AronAlpha) was coated over the entire periphery of the surface on one side. Forceps were used to hold the rapid bonding adhesive-coated metal ring with the adhesive-coated surface facing downward, and it was set on the pronase-treated mucosal surface. During a period of about 5 minutes, the metal ring became anchored to the mucosa with the rapid bonding adhesive, and the region where the dye compound was to be applied was rinsed with PBS. […] FIG. 32 is a drawing for illustration of a stainability evaluation step for the aforementioned dye compounds. […] Z stack image). […] Both of the staining photographs of the normal site and cancer tumor site were taken under the same conditions.

[3] = tested on: epithelial cells/adenocytes and connective tissue/capillaries; assay: Preferential staining of epithelial cells/adenocytes or connective tissue/capillaries; type: in vivo, mouse; details: 5 mg/ml for curcumin, 1 mg/ml for all other dyes
Protocol: A metal ring (outer diameter: 16 millimeters, inner diameter, 6 millimeters) was placed on a laboratory stage, and a rapid bonding adhesive (AronAlpha) was coated over the entire periphery of the ring surface on one side. Forceps were used to hold the rapid bonding adhesive-coated metal ring with the adhesive-coated surface facing downward, and it was set on the pronase-treated mucosal surface. During a period of about 5 minutes, the metal ring became anchored to the mucosa with the rapid bonding adhesive, and the region where the dye compound was to be applied was rinsed with PBS.
In order to avoid drying of the mucosal surface, a curcumin stock solution or sulfuretin stock solution diluted with physiological saline (PBS) (see Tables 1 to 3 for the dilution factors) was added dropwise onto the pronase-treated mucosal surface, and after allowing it to stand for 1 minute, it was rinsed 3 times with PBS, a cover glass was placed over the metal ring, and the objective lens of a multiphoton laser microscope (FV1000 MPE by Olympus Corp.) was brought near to the top of the cover glass for image observation.
The procedure from administration of the dye compound to observation was conducted as described above under “Evaluation of stainability” (same hereunder). Also, the administered concentration of dye to the mucosal surface was 5 mg/ml for curcumin as Dye No. 1, and 1 mg/ml for all of the other dyes.

[4] = tested on: mouse bladder epithelial cells; assay: Multiphoton laser microscope imaging of stained bladder epithelial cells; details: laser power of 3%
[5] = tested on: mouse tracheal epithelial cells; assay: Multiphoton laser microscope imaging of stained tracheal epithelial cells; details: laser power of 3%
[6] = tested on: human gastric mucosa (normal site and stomach cancer site); assay: Staining of surgically excised fresh human gastric mucosa; details: laser power of 1%
Text: Similar staining also occurred with surgically excised fresh human gastric mucosa. […] The centers of the circular structures are the exits of the fundic glands. It was thus possible to confirm the characteristic of normal tissue whereby epithelial cells arrange in a circular manner without disparate sizes. […] The blackened elliptical portions in each cell are the nuclei.

[7] = tested on: MDCK-GFP-Ras^V12 cells mixed with MDCK normal cells; assay: In vitro assay of MDCK-Ras^V12 cancerized cell small aggregates as a very early cancer model; type: cell-based, canine
Protocol: The MDCK normal cells were cultured in a 10 cm dish, and the MDCK-GFP-Ras^V12 cells were cultured in a 6 cm dish. The culture solution used for the MDCK normal cells was DMEM (containing Phenol Red)+10% FBS+penicillin/streptomycin.
The solution used for the MDCK-GFP-Ras^V12 cells was DMEM (containing Phenol Red)+10% FBS+penicillin/streptomycin+Zeocin (400 μg/ml)+blasticidin (5 μg/ml). […] The seeding was carried out using a DMEM+10% FBS+penicillin/streptomycin culture solution, to 1.0 to 3.0×10^4 cells per well of the 96-well dish. Tetracycline at a concentration of 2 μg/ml was added to the culture solution after 4 days when seeding was to 1.0×10^4 or after 1 day when seeding was to 3.0×10^4, and GFP-Ras^V12 was expressed, forming cancerized cell small aggregates among the MDCK normal cells (NPL 3). After 18 to 36 hours, the cells in each of the wells were rinsed 3 times with 200 μl of PBS, and then the Prestwick Chemical Library compounds and the Ministry of Health, Labour and Welfare-approved food additives, each diluted to 1 μM with a 100 μl volume of PBS, were added to the respective wells and taken up by the cells for 5 minutes at room temperature. They were then rinsed 3 times with 200 μl of PBS, and in certain cases further rinsed once with 100 μl of DMEM without Phenol Red, and observed under a multiphoton laser microscope.

Pluripotent hepatocytes = assay: Undifferentiated cell staining of pluripotent hepatocytes; type: cell-based
Text: Pluripotent stem cells such as iPS cells, ES cells or tissue-derived stem cells are considered promising for application and development in regenerative medicine, and for example, when a cell population is to be formed from iPS cells, differentiated into tissue cells that are destined to be transplanted, it is currently the case that iPS cell-derived differentiation-induced tissue cell populations partially contain undifferentiated cells that have not completely differentiated to the desired tissue cells, cells that have differentiated to cells other than the desired tissue cells, and the original iPS cells that have undergone essentially no differentiation. It has been pointed out that when such undifferentiated cells or original iPS cells are transplanted as is into the body, they can potentially become cancerated in the future. Thus, when an iPS cell-derived differentiation-induced tissue cell population is to be used for transplantation, undifferentiated cells or original iPS cells remaining in the transplanted cell population are preferably identified and confirmed, and also eliminated.

[8] = without pronase treatment, cancer 2 to 4 millimeters in diameter

| Structure (SMILES) | Excitation by multiphoton laser and brightness of image (Large intestine) | LD50 ([1]; mouse, in vivo, po) | Photon dose necessary to obtain fluorescent images compared to non-staining (mucosal surfaces) | Staining of cancer lesion sites compared with normal mucosa [2] | Staining of cancer lesion site compared with normal mucosa [2, 8] | Cell group preferentially stained (epithelial cells/adenocytes or connective tissue/capillaries) [3] | Image quality of stained cells [4] | Staining of cancer lesion site compared with normal mucosa ([2]; after 15 minutes treatment with 1% pronase MS) | Image quality of stained cells [5] | Staining of normal gastric mucosa site [6] | Staining of stomach cancer site [6] | LD50 ([1]; Mouse, Intra-abdominal) | Cancer cell staining intensity relative to normal cell staining intensity ([7]; FIG. 19) | Staining of GFP-Ras^V12 positive cancerized cells versus MDCK normal cells ([7]; Ministry of Health, Labour and Welfare-approved food additives, 1 mg/ml, excitation 750, 800, 850, 900 nm, red fluorescence) | Staining of pluripotent hepatocytes (Pluripotent hepatocytes) |
| --- | --- | --- | --- | --- | --- | --- | --- | --- | --- | --- | --- | --- | --- | --- | --- |
| O=C1/C(=C/c2ccc(O)c(O)c2)Oc2cc(O)ccc21 [Sulfuretin] | strongly excited by a multiphoton laser and provided bright images | 300 mg/kg | 4% | stained cancer lesion sites much more intensely than normal mucosa | stained the cancer lesion site significantly more intensely than the normal mucosa | intensely stained epithelial cells/adenocytes and faintly stained connective tissue/capillaries |  |  |  |  |  |  |  |  |  |
| COc1cc(/C=C/C(=O)CC(=O)/C=C/c2ccc(O)c(OC)c2)ccc1O [curcumin] | strongly excited by a multiphoton laser and provided bright images |  | 3% | stained cancer lesion sites much more intensely than normal mucosa | stained the cancer lesion site significantly more intensely than the normal mucosa | intensely stained epithelial cells/adenocytes and faintly stained connective tissue/capillaries | an image with sufficient brightness and contrast for diagnosis was obtained | stained the cancer lesion site significantly more intensely than the normal mucosa | an image with sufficient brightness and contrast for diagnosis was obtained | the circularly arranged normal epithelial cells are stained | cancer cells are stained |  |  |  |  |
| O=C([O-])c1c(Cl)c(Cl)c(Cl)c(Cl)c1-c1c2cc(Br)c(=O)c(Br)c-2oc2c(Br)c([O-])c(Br)cc12.[Na+].[Na+] [Red #104, phloxine] |  |  |  |  |  | preferentially stained epithelial cells/adenocytes |  |  |  |  |  | 310 mg/kg | 6.7 times | labeled GFP-Ras^V12-positive cancerized cell small aggregates more intensely than normal cells; also recorded: All GFP-Ras^V12 positive cells stained with Red #104 | exhibit undifferentiated cell staining |
